ChEMBL document CHEMBL4024706 (Eur J Med Chem, 2017)

What was measured:
[1] = system: Tyrosine-protein kinase ABL1 (Homo sapiens), P00519 [Q252H]; assay: Inhibition of human non-phosphorylated ABL1 Q252H mutant (S229 to K512 residues) expressed in mammalian expression system assessed as residual activity at 1 uM by Kinomescan method relative to control
[2] = biological target: Dual specificity mitogen-activated protein kinase kinase 3 (Homo sapiens) (UniProt P46734); assay: Inhibition of wild-type human full length MEK3 (M1 to S318 residues) expressed in mammalian expression system assessed as residual activity at 1 uM by Kinomescan method relative to control
[3] = biological target: Tyrosine-protein kinase Fgr (Homo sapiens) (UniProt P09769); assay: Inhibition of wild-type human partial length FGR (L233 to T529 residues) expressed in bacterial expression system assessed as residual activity at 1 uM by Kinomescan method relative to control
[4] = biological target: ALK tyrosine kinase receptor (Homo sapiens) (UniProt Q9UM73); assay: Inhibition of wild-type human partial length ALK (I1088 to E1409 residues) expressed in mammalian expression system assessed as residual activity at 1 uM by Kinomescan method relative to control
[5] = biological target: Cyclin-G-associated kinase (Homo sapiens) (UniProt O14976); assay: Inhibition of wild-type human partial length GAK (G13 to Y338 residues) expressed in bacterial expression system assessed as residual activity at 1 uM by Kinomescan method relative to control
[6] = biological target: Epidermal growth factor receptor (Homo sapiens, UniProt P00533); assay: Inhibition of recombinant human N-terminal GST-tagged wild-type EGFR (695 to end residues) expressed in baculovirus infected Sf9 insect cells using poly (Glu,Tyr)4:1 as substrate pretreated for 60 mins followed by substrate addition after 1 hr by ADP-Glo luminescence assay
[7] = biological target: Rhodopsin kinase GRK1 (Homo sapiens) (UniProt Q15835); assay: Inhibition of wild-type human full length GRK1 (M1 to S563 residues) expressed in mammalian expression system assessed as residual activity at 1 uM by Kinomescan method relative to control
[8] = biological target: SRSF protein kinase 1 (Homo sapiens) (UniProt Q96SB4); assay: Inhibition of wild-type human full length SRPK1 (M1 to S655 residues) expressed in bacterial expression system assessed as residual activity at 1 uM by Kinomescan method relative to control
[9] = biological target: Death-associated protein kinase 2 (Homo sapiens) (UniProt Q9UIK4); assay: Inhibition of wild-type human full length DAPK2 (M1 to S370 residues) expressed in bacterial expression system assessed as residual activity at 1 uM by Kinomescan method relative to control
[10] = biological target: Serine/threonine-protein kinase Nek3 (Homo sapiens) (UniProt P51956); assay: Inhibition of wild-type human full length NEK3 (M1 to R506 residues) expressed in mammalian expression system assessed as residual activity at 1 uM by Kinomescan method relative to control
[11] = biological target: Myosin light chain kinase 2, skeletal/cardiac muscle (Homo sapiens) (UniProt Q9H1R3); assay: Inhibition of wild-type human partial length MYLK2 (D258 to K570 residues) expressed in bacterial expression system assessed as residual activity at 1 uM by Kinomescan method relative to control
[12] = biological target: Ribosomal protein S6 kinase alpha-1 (Homo sapiens) (UniProt Q15418); assay: Inhibition of wild-type human partial length C-terminal RSK1 kinase domain 2 (P360 to L681 residues) expressed in bacterial expression system assessed as residual activity at 1 uM by Kinomescan method relative to control
[13] = biological target: BDNF/NT-3 growth factors receptor (Homo sapiens) (UniProt Q16620); assay: Inhibition of wild-type human partial length TRKB (Q547 to G838 residues) expressed in mammalian expression system assessed as residual activity at 1 uM by Kinomescan method relative to control
[14] = biological target: Serine/threonine-protein kinase 3 (Homo sapiens) (UniProt Q13188); assay: Inhibition of wild-type human partial length MST2 (D17 to E318 residues) expressed in bacterial expression system assessed as residual activity at 1 uM by Kinomescan method relative to control
[15] = biological target: Serine/threonine-protein kinase PknB (Mycobacterium tuberculosis) (UniProt P9WI81); assay: Inhibition of wild-type Mycobacterium tuberculosis H37Rv ATCC 25618 partial length PKNB (M1 to G279 residues) expressed in mammalian expression system assessed as residual activity at 1 uM by Kinomescan method relative to control
[16] = biological target: Calcium/calmodulin-dependent protein kinase type 1 (Homo sapiens) (UniProt Q14012); assay: Inhibition of wild-type human full length CAMK1 (M1 to L370 residues) expressed in bacterial expression system assessed as residual activity at 1 uM by Kinomescan method relative to control
[17] = biological target: Tyrosine-protein kinase receptor TYRO3 (Homo sapiens) (UniProt Q06418); assay: Inhibition of wild-type human partial length TYRO3 (S497 to T814 residues) expressed in bacterial expression system assessed as residual activity at 1 uM by Kinomescan method relative to control
[18] = biological target: Cyclin-dependent kinase 17 (Homo sapiens) (UniProt Q00537); assay: Inhibition of wild-type human full length PCTK2 (M1 to F523 residues) expressed in bacterial expression system assessed as residual activity at 1 uM by Kinomescan method relative to control
[19] = biological target: Vascular endothelial growth factor receptor 3 (Homo sapiens) (UniProt P35916); assay: Inhibition of wild-type human partial length FLT4 (E821 to E1196 residues) expressed in bacterial expression system assessed as residual activity at 1 uM by Kinomescan method relative to control
[20] = biological target: G protein-coupled receptor kinase 4 (Homo sapiens) (UniProt P32298); assay: Inhibition of wild-type human full length GRK4 (M1 to C578 residues) expressed in bacterial expression system assessed as residual activity at 1 uM by Kinomescan method relative to control
[21] = biological target: Tyrosine-protein kinase ABL2 (Homo sapiens) (UniProt P42684); assay: Inhibition of wild-type human ABL2 (A248 to G542 residues) expressed in bacterial expression system assessed as residual activity at 1 uM by Kinomescan method relative to control
[22] = biological target: Serine/threonine-protein kinase Nek2 (Homo sapiens) (UniProt P51955); assay: Inhibition of wild-type human partial length NEK2 (M1 to K309 residues) expressed in bacterial expression system assessed as residual activity at 1 uM by Kinomescan method relative to control
[23] = biological target: Serine/threonine-protein kinase 36 (Homo sapiens) (UniProt Q9NRP7); assay: Inhibition of wild-type human partial length STK36 (M1 to T271 residues) expressed in bacterial expression system assessed as residual activity at 1 uM by Kinomescan method relative to control
[24] = biological target: Serine/threonine-protein kinase/endoribonuclease IRE1 (Homo sapiens) (UniProt O75460); assay: Inhibition of wild-type human partial length ERN1 (S551 to E852 residues) expressed in mammalian expression system assessed as residual activity at 1 uM by Kinomescan method relative to control
[25] = biological target: Serine/threonine-protein kinase B-raf (Homo sapiens) (UniProt P15056); assay: Inhibition of wild-type human partial length BRAF (S429 to E741 residues) expressed in mammalian expression system assessed as residual activity at 1 uM by Kinomescan method relative to control

Vascular endothelial growth factor receptor 3 (Homo sapiens), sequence (P35916 whole entry, the tested form may be a part): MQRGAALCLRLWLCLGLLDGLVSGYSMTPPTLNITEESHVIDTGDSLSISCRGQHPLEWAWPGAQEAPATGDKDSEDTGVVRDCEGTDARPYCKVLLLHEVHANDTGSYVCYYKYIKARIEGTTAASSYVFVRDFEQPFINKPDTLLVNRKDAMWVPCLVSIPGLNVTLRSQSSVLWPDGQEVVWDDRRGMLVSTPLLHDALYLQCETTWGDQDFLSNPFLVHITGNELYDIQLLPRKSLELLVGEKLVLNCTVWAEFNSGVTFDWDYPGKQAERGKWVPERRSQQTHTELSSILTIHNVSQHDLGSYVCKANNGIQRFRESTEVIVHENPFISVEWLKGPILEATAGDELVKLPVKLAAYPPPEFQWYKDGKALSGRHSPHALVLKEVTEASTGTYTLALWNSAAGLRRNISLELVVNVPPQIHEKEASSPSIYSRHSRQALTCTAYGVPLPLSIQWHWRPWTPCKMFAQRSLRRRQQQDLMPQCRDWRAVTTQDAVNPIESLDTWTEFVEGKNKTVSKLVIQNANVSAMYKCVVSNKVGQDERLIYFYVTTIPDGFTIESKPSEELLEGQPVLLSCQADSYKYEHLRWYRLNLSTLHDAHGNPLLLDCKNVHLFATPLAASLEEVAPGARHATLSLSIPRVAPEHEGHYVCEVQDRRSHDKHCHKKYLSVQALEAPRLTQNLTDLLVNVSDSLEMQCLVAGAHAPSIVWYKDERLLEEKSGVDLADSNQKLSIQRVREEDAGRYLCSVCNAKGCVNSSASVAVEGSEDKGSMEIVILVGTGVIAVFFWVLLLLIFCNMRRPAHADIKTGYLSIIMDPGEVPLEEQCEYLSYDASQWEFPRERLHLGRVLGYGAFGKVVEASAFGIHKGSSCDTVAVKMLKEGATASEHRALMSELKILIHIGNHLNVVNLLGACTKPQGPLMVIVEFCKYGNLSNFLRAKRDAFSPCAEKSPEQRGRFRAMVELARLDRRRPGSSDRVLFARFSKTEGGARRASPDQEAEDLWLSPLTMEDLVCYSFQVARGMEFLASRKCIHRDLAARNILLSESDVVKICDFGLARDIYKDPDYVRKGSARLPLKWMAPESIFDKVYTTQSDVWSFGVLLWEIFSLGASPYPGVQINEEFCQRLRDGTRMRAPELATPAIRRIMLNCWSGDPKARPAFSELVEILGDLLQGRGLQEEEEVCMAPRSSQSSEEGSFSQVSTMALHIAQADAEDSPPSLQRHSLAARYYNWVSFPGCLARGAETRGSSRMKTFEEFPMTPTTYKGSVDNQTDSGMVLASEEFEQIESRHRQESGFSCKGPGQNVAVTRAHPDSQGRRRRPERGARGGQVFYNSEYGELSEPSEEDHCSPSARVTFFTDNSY
Serine/threonine-protein kinase Nek2 (Homo sapiens), sequence (P51955 whole entry, the tested form may be a part): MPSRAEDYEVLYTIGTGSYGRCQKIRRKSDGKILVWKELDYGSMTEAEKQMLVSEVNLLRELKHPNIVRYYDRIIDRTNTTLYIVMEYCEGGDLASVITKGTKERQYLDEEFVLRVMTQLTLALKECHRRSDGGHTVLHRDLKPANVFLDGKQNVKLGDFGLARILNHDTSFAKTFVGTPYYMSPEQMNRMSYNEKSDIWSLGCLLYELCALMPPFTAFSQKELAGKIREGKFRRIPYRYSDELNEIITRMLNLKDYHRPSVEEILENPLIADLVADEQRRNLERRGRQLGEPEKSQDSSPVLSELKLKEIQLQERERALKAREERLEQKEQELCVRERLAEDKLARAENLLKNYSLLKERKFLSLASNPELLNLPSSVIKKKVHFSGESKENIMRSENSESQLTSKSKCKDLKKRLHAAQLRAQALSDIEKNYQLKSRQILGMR
Tyrosine-protein kinase Fgr (Homo sapiens), sequence (P09769 2-529 limits assumed): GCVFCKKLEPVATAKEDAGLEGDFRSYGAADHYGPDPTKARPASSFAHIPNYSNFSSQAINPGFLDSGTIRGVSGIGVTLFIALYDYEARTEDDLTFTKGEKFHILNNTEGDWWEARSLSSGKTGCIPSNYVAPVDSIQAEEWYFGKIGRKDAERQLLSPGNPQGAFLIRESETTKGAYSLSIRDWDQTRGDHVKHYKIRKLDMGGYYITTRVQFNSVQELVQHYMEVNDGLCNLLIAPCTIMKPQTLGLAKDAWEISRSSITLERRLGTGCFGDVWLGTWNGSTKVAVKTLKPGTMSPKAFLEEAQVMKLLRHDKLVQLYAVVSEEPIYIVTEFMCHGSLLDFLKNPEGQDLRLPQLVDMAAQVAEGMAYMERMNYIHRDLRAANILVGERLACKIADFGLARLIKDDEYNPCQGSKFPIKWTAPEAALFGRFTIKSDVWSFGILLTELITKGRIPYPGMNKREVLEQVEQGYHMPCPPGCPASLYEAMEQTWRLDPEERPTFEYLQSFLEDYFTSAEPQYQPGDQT
Myosin light chain kinase 2, skeletal/cardiac muscle (Homo sapiens), sequence (Q9H1R3 whole entry, the tested form may be a part): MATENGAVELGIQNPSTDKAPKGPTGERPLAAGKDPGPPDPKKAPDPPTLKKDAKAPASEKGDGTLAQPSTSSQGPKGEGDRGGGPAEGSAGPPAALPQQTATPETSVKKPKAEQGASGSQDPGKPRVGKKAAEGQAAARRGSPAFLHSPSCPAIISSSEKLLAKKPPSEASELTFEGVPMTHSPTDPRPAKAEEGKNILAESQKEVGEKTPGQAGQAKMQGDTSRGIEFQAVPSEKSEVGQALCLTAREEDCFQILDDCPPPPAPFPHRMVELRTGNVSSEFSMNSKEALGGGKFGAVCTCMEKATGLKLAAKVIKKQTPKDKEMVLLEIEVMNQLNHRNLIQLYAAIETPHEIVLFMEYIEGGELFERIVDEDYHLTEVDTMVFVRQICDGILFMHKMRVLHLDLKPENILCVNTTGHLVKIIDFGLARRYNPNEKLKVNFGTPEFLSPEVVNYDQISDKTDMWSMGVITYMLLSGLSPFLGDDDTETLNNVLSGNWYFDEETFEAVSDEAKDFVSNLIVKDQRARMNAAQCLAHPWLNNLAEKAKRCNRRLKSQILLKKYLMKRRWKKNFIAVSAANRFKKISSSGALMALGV
G protein-coupled receptor kinase 4 (Homo sapiens), sequence (P32298 whole entry, looked up, the tested form may be a part): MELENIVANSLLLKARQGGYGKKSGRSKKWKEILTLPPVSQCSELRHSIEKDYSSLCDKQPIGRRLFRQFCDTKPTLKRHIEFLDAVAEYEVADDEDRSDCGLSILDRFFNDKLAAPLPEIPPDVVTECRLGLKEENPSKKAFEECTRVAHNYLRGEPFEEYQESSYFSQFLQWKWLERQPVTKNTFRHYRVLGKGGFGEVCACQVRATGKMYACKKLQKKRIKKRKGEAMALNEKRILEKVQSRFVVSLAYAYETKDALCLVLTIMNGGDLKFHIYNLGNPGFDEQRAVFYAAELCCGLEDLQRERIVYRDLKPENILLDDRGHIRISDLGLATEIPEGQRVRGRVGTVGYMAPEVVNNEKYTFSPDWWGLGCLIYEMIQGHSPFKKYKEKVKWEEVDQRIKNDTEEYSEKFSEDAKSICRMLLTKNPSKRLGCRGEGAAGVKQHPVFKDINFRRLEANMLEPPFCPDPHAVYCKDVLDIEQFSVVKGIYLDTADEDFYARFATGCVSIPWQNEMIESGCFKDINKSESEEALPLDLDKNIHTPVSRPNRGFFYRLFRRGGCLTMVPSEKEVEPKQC
Serine/threonine-protein kinase/endoribonuclease IRE1 (Homo sapiens), sequence (O75460 19-977 limits assumed): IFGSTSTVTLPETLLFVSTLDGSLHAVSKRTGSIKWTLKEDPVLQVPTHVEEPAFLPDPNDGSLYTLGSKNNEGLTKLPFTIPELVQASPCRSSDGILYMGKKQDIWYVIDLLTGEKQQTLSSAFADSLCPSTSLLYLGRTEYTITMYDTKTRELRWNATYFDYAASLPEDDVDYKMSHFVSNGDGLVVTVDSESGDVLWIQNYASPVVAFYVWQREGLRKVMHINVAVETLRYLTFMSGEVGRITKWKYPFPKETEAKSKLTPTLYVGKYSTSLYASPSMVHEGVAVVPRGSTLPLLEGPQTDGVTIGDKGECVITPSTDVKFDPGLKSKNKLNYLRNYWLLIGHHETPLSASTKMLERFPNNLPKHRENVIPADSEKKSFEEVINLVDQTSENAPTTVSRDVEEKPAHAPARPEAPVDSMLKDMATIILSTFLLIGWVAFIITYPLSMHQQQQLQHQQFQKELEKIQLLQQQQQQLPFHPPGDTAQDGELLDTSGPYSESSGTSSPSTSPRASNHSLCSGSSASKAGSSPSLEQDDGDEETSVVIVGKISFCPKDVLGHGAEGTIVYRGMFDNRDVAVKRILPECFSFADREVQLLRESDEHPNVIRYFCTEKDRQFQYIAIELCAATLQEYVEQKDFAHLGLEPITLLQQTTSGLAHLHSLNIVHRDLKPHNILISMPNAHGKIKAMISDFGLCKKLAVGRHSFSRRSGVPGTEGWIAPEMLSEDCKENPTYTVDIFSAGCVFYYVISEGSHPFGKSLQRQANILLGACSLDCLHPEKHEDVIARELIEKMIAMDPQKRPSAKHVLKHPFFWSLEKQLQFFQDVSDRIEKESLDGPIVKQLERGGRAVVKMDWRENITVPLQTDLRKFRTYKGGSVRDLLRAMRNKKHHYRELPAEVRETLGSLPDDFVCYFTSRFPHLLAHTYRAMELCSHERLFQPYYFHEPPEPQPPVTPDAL
Serine/threonine-protein kinase Nek3 (Homo sapiens), sequence (P51956 whole entry, the tested form may be a part): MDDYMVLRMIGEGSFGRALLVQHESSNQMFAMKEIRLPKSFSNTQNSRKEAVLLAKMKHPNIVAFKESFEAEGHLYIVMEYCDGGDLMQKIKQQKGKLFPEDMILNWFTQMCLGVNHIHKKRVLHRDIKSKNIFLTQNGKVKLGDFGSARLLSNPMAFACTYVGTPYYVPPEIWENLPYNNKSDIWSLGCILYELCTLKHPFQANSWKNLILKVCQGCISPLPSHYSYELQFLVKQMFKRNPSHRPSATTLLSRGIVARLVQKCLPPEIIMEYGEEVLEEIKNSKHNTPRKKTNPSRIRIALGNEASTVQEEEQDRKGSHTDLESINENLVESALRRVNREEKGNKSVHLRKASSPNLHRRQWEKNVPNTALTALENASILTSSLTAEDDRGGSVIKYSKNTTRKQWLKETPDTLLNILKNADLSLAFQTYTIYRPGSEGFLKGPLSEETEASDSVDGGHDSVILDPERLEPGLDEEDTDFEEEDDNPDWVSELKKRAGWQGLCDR

C=CC(=O)Nc1cc(Nc2cc(-c3cccc(NC(=O)c4ccc(C(C)(C)C)cc4)c3C)cn(C)c2=O)ccc1C(=O)N1CCOCC1
Activity [1]: 100% | Activity [2]: 100% | Activity [3]: 77% | Activity [4]: 94% | Activity [5]: 99% | IC50 [6]: > 10 µM | Activity [7]: 100% | Activity [8]: 100% | Activity [9]: 99% | Activity [10]: 97% | Activity [11]: 100% | Activity [12]: 100% | Activity [13]: 80% | Activity [14]: 87% | Activity [15]: 100% | Activity [16]: 92% | Activity [17]: 75% | Activity [18]: 100% | Activity [19]: 100% | Activity [20]: 80% | Activity [21]: 100% | Activity [22]: 99% | Activity [23]: 93% | Activity [24]: 100% | Activity [25]: 100%
